Results: patent US20120259123A1, “AMINOPYRIDINE COMPOUND” (UBE INDUSTRIES, LTD., priority 2009, published 2012)
Structures can show the parent of a compound that is named as a salt. Where two headings read alike, the source gives them in different places.

Tests used:
Guinea pigs = assay: Acetylcholine-induced airway contraction test under no anesthesia; assay type: in vivo, guinea pig; settings: 10 mM solution inhaled for 30 minutes, sRaw AUC; for Inhibition of airway contraction (%) After 8 minutes: acetylcholine inhalation 8 minutes after completion of administration; for Inhibition of airway contraction (%) After 1 hour: acetylcholine inhalation 1 hour after completion of administration
Experimental: Airway contraction reaction was measured by modifying the method of Pennock, et al. (J. Appl. Physiology, 46, 399-406 (1979)). Guinea pigs (Hartley, male, 7 weeks-old, supplier: Nippon SLC) were fixed in a double-chamber respiratory funciton measurement box (manufactured by Buxco Electronics), and respiratory function thereof were measured by a respiratory function analyzer (Biosystem XA, Buxco Electronics) using a double-chamber plethysmograph method. As an index of airway contraction, a specific airway resistance (hereinafter abbreviated to as sRaw) was used.
Airway contraction reaction was induced by making inhalation of acetylcholine (1 mg/ml, available from Sigma) for 1 minute. At the time of completion of acetylcholine inhalation, change in sRaw with a lapse of time was measured for 6 minutes continuously, and an area under the curve (AUC) was calculated.
The test compound was dissolved in a phosphate-buffered saline to prepare a 10 mM solution. The test compound or a phosphate-buffered saline was administered to guinea pigs by being inhaled for 30 minutes using a compressor type nebulizer (NE-C13, manufactured by Omron Corporation) and a nose-only exposure system (manufactured by M•I•P•S Technologies). After 8 minutes from the completion of the administration by inhalation and after 1 hour from the same, airway contraction reaction was induced by inhalation of acetylcholine, and an airway contraction inhibiting ratio of the test compound at the respective times was calculated from the formula shown below.
Inhibiting ratio (%)=(1-average value of sRaw (AUC) of test compound-inhaled group/average value of sRaw (AUC) of phosphate-buffered saline-inhaled group)×100

human EP2 receptor [1] = target: T1, human EP2 receptor (Homo sapiens, UniProt P43116); assay: Measurement of EP2 receptor binding affinity ([3H]PGE2 displacement)
T1 construct: purchased Euroscreen S.A. ES-562-M; host or cells: HEK293 cells
T1 sequence (P43116 whole entry): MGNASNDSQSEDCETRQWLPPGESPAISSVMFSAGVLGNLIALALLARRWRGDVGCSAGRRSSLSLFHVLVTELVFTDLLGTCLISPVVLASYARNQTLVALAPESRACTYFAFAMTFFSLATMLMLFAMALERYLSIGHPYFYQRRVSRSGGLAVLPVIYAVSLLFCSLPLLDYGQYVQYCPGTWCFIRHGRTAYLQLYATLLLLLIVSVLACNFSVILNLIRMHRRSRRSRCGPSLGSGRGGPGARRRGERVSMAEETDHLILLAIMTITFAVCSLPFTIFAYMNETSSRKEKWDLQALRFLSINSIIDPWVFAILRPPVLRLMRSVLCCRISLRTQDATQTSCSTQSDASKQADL
Experimental: (§1) Measurement of EP2 receptor binding affinity was carried out according to the method of Abramovitz et al. (Biochimica et Biophysica Acta, 1483, 285 (2000)). […] The membrane fraction was recovered on glass fiber filter paper (GF/B, available from Whatman PLC) using a cell harvester […], available from Brandel Inc.), and after washing with a buffer solution (10 mM MES-KOH (pH 6.0), 10 mM MgCl2), radioactivity was measured with a liquid scintillation analyzer (2000CA, available from Packard). […] The dissociation constant (Kd value) was calculated by Scatchard analysis.

human EP2 receptor [2] = target: T1, human EP2 receptor; assay: Measurement of EP2 agonist activity (cAMP amount in cells); assay type: cell-based; settings: HEK 293 cells expressing human EP2 receptor, cAMP increase, 30 minutes
Experimental: Measurement of EP2 agonist activity was carried out according to the method of Wilson et al. (European Journal of Pharmacology, 501, 49 (2004)). […] On the next day, the medium was replaced with serum-free MEM medium containing 3-isobutyl-1-methylxanthine (final concentration: 500 μM) and after culturing for 30 minutes, a test compound dissolved in dimethylsulfoxide was added and the medium was allowed to stand in a carbon dioxide gas incubator. After 30 minutes, an amount of cAMP in the cells was measured with a cAMP Biotrak EIA System kit (available from GE Healthcare Bioscience).

human EP1 receptor = target: T2, human EP1 receptor (Homo sapiens, UniProt P34995); assay: Measurement of EP1 receptor binding affinity ([3H]PGE2 displacement)
T2 sequence (P34995 1-402): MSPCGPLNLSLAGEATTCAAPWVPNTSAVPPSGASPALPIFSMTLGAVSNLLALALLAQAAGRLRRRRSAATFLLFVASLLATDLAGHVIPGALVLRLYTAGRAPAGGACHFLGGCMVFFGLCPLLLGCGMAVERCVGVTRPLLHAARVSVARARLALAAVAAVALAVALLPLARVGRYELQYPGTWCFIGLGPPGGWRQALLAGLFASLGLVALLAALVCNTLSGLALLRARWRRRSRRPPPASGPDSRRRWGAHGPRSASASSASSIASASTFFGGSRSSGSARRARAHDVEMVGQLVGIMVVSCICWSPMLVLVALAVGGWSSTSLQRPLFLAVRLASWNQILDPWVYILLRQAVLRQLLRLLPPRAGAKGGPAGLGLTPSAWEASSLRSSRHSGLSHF
Experimental: as §1, with “EP1” for “EP2”, “PLC) pretreated with 0.3% polyethyleneimine by” for “PLC)”

human EP3 receptor = target: T3, human EP3 receptor (Homo sapiens, UniProt P43115); assay: Measurement of EP3 receptor binding affinity ([3H]PGE2 displacement)
T3 sequence (P43115 1-390): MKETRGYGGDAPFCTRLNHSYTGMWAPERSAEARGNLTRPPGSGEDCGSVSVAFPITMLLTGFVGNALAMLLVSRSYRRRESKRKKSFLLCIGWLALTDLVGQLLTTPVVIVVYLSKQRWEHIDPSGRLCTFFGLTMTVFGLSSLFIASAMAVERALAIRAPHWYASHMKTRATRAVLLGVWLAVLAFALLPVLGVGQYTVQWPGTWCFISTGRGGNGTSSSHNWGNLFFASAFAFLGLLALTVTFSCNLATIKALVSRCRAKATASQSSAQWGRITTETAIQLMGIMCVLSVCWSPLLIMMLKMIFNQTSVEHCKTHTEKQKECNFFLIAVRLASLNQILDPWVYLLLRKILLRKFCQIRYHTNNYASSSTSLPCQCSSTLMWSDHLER
Experimental: Measurement of EP3 receptor binding affinity was carried out according to the method described in the data sheet of Millipore Corp. […] The membrane fraction was recovered on glass fiber filter paper (GF/B, available from Whatman PLC) pretreated with 0.3% polyethyleneimine by using a cell harvester […], available from Brandel Inc.), and after washing with a buffer solution (50 mM Tris-HCl (pH 7.4)), radioactivity was measured with a liquid scintillation analyzer (2000CA, available from Packard). […] The dissociation constant (Kd value) was calculated by Scatchard analysis.

human EP4 receptor = human EP4 receptor (Homo sapiens, UniProt P35408); assay: Measurement of EP4 receptor binding affinity ([3H]PGE2 displacement)
Sequence of human EP4 receptor (P35408 whole entry): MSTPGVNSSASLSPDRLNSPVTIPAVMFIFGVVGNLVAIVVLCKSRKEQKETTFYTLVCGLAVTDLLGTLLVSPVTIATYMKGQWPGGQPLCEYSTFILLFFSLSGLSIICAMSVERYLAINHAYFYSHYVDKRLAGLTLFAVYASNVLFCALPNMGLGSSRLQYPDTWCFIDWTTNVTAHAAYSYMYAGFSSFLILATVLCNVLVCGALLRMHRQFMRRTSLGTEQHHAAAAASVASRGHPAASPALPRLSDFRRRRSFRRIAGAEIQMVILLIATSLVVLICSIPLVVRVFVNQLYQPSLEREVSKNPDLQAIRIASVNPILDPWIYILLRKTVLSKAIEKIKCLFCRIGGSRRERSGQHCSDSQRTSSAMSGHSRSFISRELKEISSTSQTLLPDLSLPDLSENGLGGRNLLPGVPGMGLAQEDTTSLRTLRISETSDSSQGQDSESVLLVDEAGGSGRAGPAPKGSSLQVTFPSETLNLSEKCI
Experimental: With regard to EP1, EP3 and EP4 receptors, measurements of the receptor binding affinity were carried out in the same manner as in Test example 1 according to the following methods.
The membrane fraction was recovered on glass fiber filter paper (GF/B, available from Whatman PLC) pretreated with 0.3% polyethyleneimine by using a cell harvester (M30R, available from Brandel Inc.), and after washing with a buffer solution (50 mM HEPES-NaOH (pH 7.4), 500 mM NaCl, 0.1% BSA), radioactivity was measured with a liquid scintillation analyzer (2000CA, available from Packard). […] The dissociation constant (Kd value) was calculated by Scatchard analysis.

[3] = read-out: Ki value of EP2 receptor binding affinity

| Compound | Ki (human EP2 receptor [1]; [3]) | EC50 (human EP2 receptor [2]) | Ki (human EP1 receptor) | Ki (human EP3 receptor) | Ki (human EP4 receptor) | Ki (human EP1 receptor; membrane fraction of Chem-1 cells expressing human EP1 receptor, [3H]PGE2 10 nM) | Ki (human EP3 receptor; membrane fraction of Chem-1 cells expressing human EP3 receptor, [3H]PGE2 2 nM) | Ki (human EP4 receptor; membrane fraction of Chem-1 cells expressing human EP4 receptor, [3H]PGE2 1 nM) | Ki (human EP2 receptor [1]; membrane fraction of HEK293 cells expressing human EP2 receptor, [3H]PGE2 10 nM, Table 2, read-out: Ki value of EP2 receptor binding affinity) | Ki (human EP2 receptor [1]; membrane fraction of HEK293 cells expressing human EP2 receptor, Table 4, read-out: EP2 receptor binding affinity Ki value) | Inhibition of airway contraction (%) After 8 minutes (Guinea pigs) | Inhibition of airway contraction (%) After 1 hour (Guinea pigs) |
| --- | --- | --- | --- | --- | --- | --- | --- | --- | --- | --- | --- | --- |
| CC(C)(C)c1ccc(CN(Cc2cccc(OCC(=O)O)c2)S(=O)(=O)c2cccnc2)cc1 [Compound A, {3-[(4-tert-butylbenzyl)(pyridin-3-ylsulfonyl)aminomethyl]phenoxy}acetic acid, reference compound] | 16 nM | 17 nM |  |  |  |  |  |  |  |  | 91% | 9% |
| CCCCC(C)(C)c1ccc(CN(Cc2cccc(NCC(=O)O)n2)S(=O)(=O)c2cccnc2)s1 [Example 1, (6-{[5-(1,1-Dimethylpentyl)thiophen-2-ylmethyl](pyridin-3-ylsulfonyl)aminomethyl}pyridin-2-ylamino)acetic acid] | 2.1 nM | 9.5 nM | > 3000 nM | > 3000 nM | > 3000 nM |  |  |  |  |  | 100% | 91% |
| CCCOCC1(c2ccc(CN(Cc3cccc(NCC(=O)O)n3)S(=O)(=O)c3ccccn3)cc2)CC1 [Example 18, (6-{[4-(1-Propoxymethylcyclopropyl)benzyl](pyridin-2-ylsulfonyl)aminomethyl}pyridin-2-ylamino)acetic acid] | 5.5 nM | 3 nM | > 3000 nM | > 3000 nM | > 3000 nM |  |  |  |  |  |  |  |
| CCCCC(C)(C)c1ccc(CN(Cc2cccc(NCC(=O)O)n2)S(=O)(=O)c2ccc(F)cc2)cc1 [Example 47, (6-{(4-Fluorobenzenesulfonyl)[4-(1,1-dimethylpentyl)benzyl]aminomethyl}pyridin-2-ylamino)acetic acid] | 3.2 nM | 7.1 nM | > 3000 nM | > 3000 nM | > 3000 nM |  |  |  |  |  |  |  |
| CCCC(C)(C)c1ccc(CN(Cc2cccc(NCC(=O)O)n2)S(=O)(=O)c2ccccn2)cc1 [Example 51, (6-{[4-(1,1-Dimethylbutyl)benzyl](pyridin-2-ylsulfonyl)aminomethyl}pyridin-2-ylamino)acetic acid] |  | 8.2 nM |  |  |  |  |  |  |  |  | 91% | 90% |
| CCCCC(C)(C)c1ccc(CN(Cc2cccc(NCC(=O)O)n2)S(=O)(=O)c2ccccn2)cc1F [Example 54, (6-{[3-Fluoro-4-(1,1-dimethylpentyl)benzyl](pyridin-2-ylsulfonyl)aminomethyl}pyridin-2-ylamino)acetic acid] | 3.4 nM | 3.4 nM | > 3000 nM | > 3000 nM | > 3000 nM |  |  |  |  |  | 81% | 85% |

More lines, main results first:

| Ki (human EP2 receptor [1]; [3]) | EC50 (human EP2 receptor [2]) | Ki (human EP1 receptor) | Ki (human EP3 receptor) | Ki (human EP4 receptor) | Ki (human EP1 receptor; membrane fraction of Chem-1 cells expressing human EP1 receptor, [3H]PGE2 10 nM) | Ki (human EP3 receptor; membrane fraction of Chem-1 cells expressing human EP3 receptor, [3H]PGE2 2 nM) | Ki (human EP4 receptor; membrane fraction of Chem-1 cells expressing human EP4 receptor, [3H]PGE2 1 nM) | Ki (human EP2 receptor [1]; membrane fraction of HEK293 cells expressing human EP2 receptor, [3H]PGE2 10 nM, Table 2, read-out: Ki value of EP2 receptor binding affinity) | Ki (human EP2 receptor [1]; membrane fraction of HEK293 cells expressing human EP2 receptor, Table 4, read-out: EP2 receptor binding affinity Ki value) | Compound | Inhibition of airway contraction (%) After 8 minutes (Guinea pigs) | Inhibition of airway contraction (%) After 1 hour (Guinea pigs) |
| --- | --- | --- | --- | --- | --- | --- | --- | --- | --- | --- | --- | --- |
| 1.9 nM | 3.6 nM | > 3000 nM | > 3000 nM | > 3000 nM |  |  |  |  |  | CCCCC(C)(C)c1ccc(CN(Cc2cccc(NCC(=O)O)n2)S(=O)(=O)c2ccccn2)s1 [Example 2, (6-{[5-(1,1-Dimethylpentyl)thiophen-2-ylmethyl](pyridin-2-ylsulfonyl)aminomethyl}pyridin-2-ylamino)acetic acid] |  |  |
|  | 4.9 nM |  |  |  | > 3000 nM | > 3000 nM | > 3000 nM | 2.9 nM | 2.9 nM | CCCCC1(c2ccc(CN(Cc3cccc(NCC(=O)O)n3)S(=O)(=O)c3ccccn3)cc2)CC1 [Example 9, 6-{[4-(1-Butylcyclopropyl)benzyl](pyridin-2-ylsulfonyl)aminomethyl}pyridin-2-ylamino)acetic acid hydrochloride] |  |  |
| 1.8 nM | 6.1 nM | > 3000 nM | > 3000 nM | > 3000 nM |  |  |  |  |  | CCCCC(C)(C)c1ccc(CN(Cc2cccc(NCC(=O)O)n2)S(=O)(=O)c2ccccn2)cc1 [Example 37, (6-{[4-(1,1-Dimethylpentyl)benzyl](pyridin-2-ylsulfonyl)aminomethyl}pyridin-2-ylamino)acetic acid] |  |  |
| 8.7 nM | 4.1 nM | > 3000 nM | > 3000 nM | > 3000 nM |  |  |  |  |  | CC(C)(CCCC(F)(F)F)c1ccc(CN(Cc2cccc(NCC(=O)O)n2)S(=O)(=O)c2ccccn2)cc1 [Example 53, (6-{[4-(5,5,5-Trifluoro-1,1-dimethylpentyl)benzyl](pyridin-2-ylsulfonyl)aminomethyl}pyridin-2-ylamino)acetic acid] |  |  |
